System: LPS-induced release of TNFα from human macrophages from healthy donors
Assay: ELISA-based TNFα release assay, human macrophages from healthy donors
Assay type: cell-based
Details: Macrophage, recombinant murine antibodies, final concentration of 10 µg/ml, Batimastat 10 μM, LPS 5 ng/ml, 2 hours
Procedure: Complementary to Example 32 described above, ELISA-based TNFα release assays were performed to test the inhibitory effects of the antibodies on LPS-induced release of endogenous TNFα from human macrophages from healthy donors.
To obtain human macrophages, peripheral blood mononuclear cells (PBMCs) from 4 healthy donors were used. Cells from 5 ml human blood were resuspended in 20 ml of DMEM medium (Corning, USA) supplemented with 10% FCS (Atlanta Biological, USA) and Penicillin/Streptomycin (Corning, USA) (DMEM/FCS) and were then incubated on two 10 cm petri dishes (Thermo Fisher, USA) at 37° C., 5% CO2 for 3h. Non-adherent cells were subsequently removed and 6 ml of DMEM/FCS supplemented with 10 ng/ml human MCSF (Peprotech, USA) (DMEM/FCS/MCSF) was added per plate. Both plates were incubated at 37° C., 5% CO2 for 2 days, then 2 ml of DMEM/FCS/MCSF was added to each plate on day 2 and 4. On day 5, all medium was removed and attached cells were washed once with 5 ml PBS (Corning, USA). 2 ml of Accutase (Promocell, USA) solution was added to each plate and incubated at 37° C. for 15 min. 10 ml of DMEM/FCS was added to each plate and detached cells were collected in a 15 ml Falcon tube. Cells were subsequently pelleted in a tabletop centrifuge (Eppendorf, USA) at 1,500 rpm for 5 min. […] 10 μl from this cell suspension was manually counted in a hemocytometer (Thermo Fisher, USA). […]

Compound: CNC(=O)[C@H](Cc1ccccc1)NC(=O)[C@H](CC(C)C)[C@H](CSc1cccs1)C(=O)NO [Batimastat]
- inhibition at 10 µM: 68.3%

Source: patent US20240174744A1, “METHODS OF TREATMENT USING PROTEIN BINDERS TO IRHOM2 EPITOPES” (SCIRHOM GMBH, priority 2021, published 2024)
